Experimental data reported in patent US10548861B2 (Academia Sinica, priority 2015, dated 2020).
Several values for one entry are separate records, joined by “and”; a condition that tells them apart may be missing. Equal entries are not always repeated. Where two headings read alike, the source gives them in different places.

Tests used:
MV4;11 MLL-AF4 + Flt3ITD = assay: Cytotoxicity: AML line; format: cell-based; conditions: Homo sapiens
HEL = assay: Cytotoxicity: AML JAK2-V617 mut; format: cell-based; conditions: Homo sapiens
H1703 = assay: cells; format: cell-based; conditions: Homo sapiens, NCI-H1703
[1] = tested on: lymphoma cell lines (DLBCL GBC and ABC subtypes, mantle cell lymphoma); assay: Cytotoxicity on panel of lymphoma cell lines; format: cell-based, human; conditions: for IC50: Homo sapiens
[2] = tested on: SCLC lines (classic and variant); assay: 72 hr alamar blue cytotoxicity on SCLC panel; format: cell-based; conditions: Homo sapiens, read-out: IC50 range
[3] = Pharmacokinetics, IV bolus 10 mg/kg (HPLC-PDA); format: in vivo, Sprague-Dawley rats; conditions: rat, IV 10 mg/kg
Description: Serial blood samples were collected from the jugular vein at 0, 5, 10, 15, 30, 45, 60, 90, 120, 150, 180, 240, 300, 360 min after dosing. […] All pharmacokinetic analysis was carried out using the WinNonlin Standard Edition Version 1.0 (Scientific Consulting Inc., Apex, N.C., USA).

[4] = tested on: A673 Ewing's sarcoma cells; assay: Cell cycle / apoptosis by flow cytometry; format: cell-based, human
SUDHL-6 = conditions: human
[5] = tested on: spontaneous murine B-cell lymphoma on MS5 stroma; assay: cells; conditions: Mus musculus, light or radiation study
MG63 = assay: Cytotoxicity: Osteosarcoma; conditions: Homo sapiens, MG-63, read-out: cytotoxic activity (IC50)
OSA = assay: Cytotoxicity: Osteosarcoma; conditions: Homo sapiens, read-out: cytotoxic activity (IC50)
BER = assay: Cytotoxicity: Sarcoma, DSRCT; conditions: Homo sapiens, read-out: cytotoxic activity (IC50)
SIM-1 = assay: Cytotoxicity: Ewing's sarcoma; conditions: Homo sapiens, read-out: cytotoxic activity (IC50)
[6] = Non-GLP acute 14-day intravenous toxicity; conditions: for LD50 at 14 days: ICR, mouse, in vivo, iv, single i.v.
P-glycoprotein (P-gp) = P-glycoprotein (P-gp) (Homo sapiens, UniProt P08183); assay: P-gp mediated efflux in Caco-2 cell monolayers
Chain of P-glycoprotein (P-gp) (P08183 whole entry): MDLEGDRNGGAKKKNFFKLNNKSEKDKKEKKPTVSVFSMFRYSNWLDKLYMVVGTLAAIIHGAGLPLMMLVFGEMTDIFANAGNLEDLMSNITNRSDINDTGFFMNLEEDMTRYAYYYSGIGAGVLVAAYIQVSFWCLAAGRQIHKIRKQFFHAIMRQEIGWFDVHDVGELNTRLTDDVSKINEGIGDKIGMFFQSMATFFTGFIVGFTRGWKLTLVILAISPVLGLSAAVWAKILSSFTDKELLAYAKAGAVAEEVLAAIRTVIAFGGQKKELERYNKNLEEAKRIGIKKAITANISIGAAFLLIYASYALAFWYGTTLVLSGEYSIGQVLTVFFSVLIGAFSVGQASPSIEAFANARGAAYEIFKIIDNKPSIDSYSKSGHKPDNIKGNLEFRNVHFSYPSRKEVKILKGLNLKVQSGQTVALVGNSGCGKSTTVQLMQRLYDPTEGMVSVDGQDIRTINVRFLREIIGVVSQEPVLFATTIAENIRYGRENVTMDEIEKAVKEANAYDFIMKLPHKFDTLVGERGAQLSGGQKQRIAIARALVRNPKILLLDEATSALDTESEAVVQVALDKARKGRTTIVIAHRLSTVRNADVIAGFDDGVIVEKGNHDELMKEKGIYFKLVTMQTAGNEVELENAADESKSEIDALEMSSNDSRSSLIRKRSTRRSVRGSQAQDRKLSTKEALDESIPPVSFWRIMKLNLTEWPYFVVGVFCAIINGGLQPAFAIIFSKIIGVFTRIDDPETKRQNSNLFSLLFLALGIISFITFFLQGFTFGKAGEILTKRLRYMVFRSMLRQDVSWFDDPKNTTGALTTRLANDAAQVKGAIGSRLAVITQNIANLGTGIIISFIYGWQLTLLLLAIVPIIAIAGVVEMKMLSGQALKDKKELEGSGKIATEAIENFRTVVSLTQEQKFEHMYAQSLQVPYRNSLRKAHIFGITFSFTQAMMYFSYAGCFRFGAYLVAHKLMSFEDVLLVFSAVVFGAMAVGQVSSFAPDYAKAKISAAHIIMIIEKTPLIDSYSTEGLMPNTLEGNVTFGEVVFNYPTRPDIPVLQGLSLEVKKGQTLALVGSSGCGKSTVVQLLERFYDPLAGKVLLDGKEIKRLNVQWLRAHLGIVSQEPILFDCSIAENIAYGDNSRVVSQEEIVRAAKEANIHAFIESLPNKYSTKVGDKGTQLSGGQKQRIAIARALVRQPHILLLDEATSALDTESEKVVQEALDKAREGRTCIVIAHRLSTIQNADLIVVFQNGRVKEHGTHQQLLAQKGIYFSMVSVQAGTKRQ

[7] = Pathological evaluation and body weight, mice bearing prostate 22Rv/HL2 xenografts; conditions: nude mice bearing 22Rv/HL2

**Q.** Which IC50 (MV4;11 MLL-AF4 + Flt3ITD) does the source give for CN(C)CCNC(=O)c1cccc(NC(=O)Nc2ccc(N(CCCl)CCCl)cc2)c1.Cl [BO-1055, ureidomustine] here?
**A.** The IC50 was 0.3 µM.

**Q.** And the IC50 (HEL)?
**A.** Its IC50 is at least 10 µM.

**Q.** And the IC50 (H1703)?
**A.** The IC50 was 1.67 µM.

**Q.** And the TI ([1]; 14 moderately sensitive lymphoma lines)?
**A.** Its TI is 2.04-9.03.

**Q.** And the IC50 ([1]; 4 TP53 wild type lines, read-out: IC50 range)?
**A.** The IC50 was 0.12 to 7.02 µM.

**Q.** What about the IC50 ([1]; 11 of 27 lymphoma lines, highly sensitive, read-out: IC50 range) of the same molecule?
**A.** The IC50 was 0.12 to 0.84 µM.

**Q.** What about the IC50 ([1]; 14 of 27 lymphoma lines, moderately sensitive, read-out: IC50 range) of the same molecule?
**A.** Its IC50 is 1.08 to 4.9 µM.

**Q.** What about the IC50 ([1]; eight lines with TP53 mutations, read-out: IC50 range) of the same molecule?
**A.** Its IC50 is 0.29 to 4.9 µM.

**Q.** And the IC50 ([1]; mutated/rearranged/amplified BCL2 lines, read-out: IC50 range)?
**A.** The IC50 was 0.29 to 4.9 µM.

**Q.** And the IC50 ([1]; two resistant lymphoma lines, read-out: IC50)?
**A.** The IC50 was over 10 µM.

**Q.** What about the Therapeutic window ([1]; human B-cell lymphomas vs various normal human cell types) of the same molecule?
**A.** The Therapeutic window was 50-100 fold.

**Q.** And the IC50 ([2]; four resistant SCLC lines)?
**A.** Its IC50 is 20 to 40 µM.

**Q.** And the IC50 ([2]; six very sensitive SCLC lines)?
**A.** The IC50 was 0.05 to 0.39 µM.

**Q.** What about the IC50 ([2]; two highly sensitive variant SCLC lines) of the same molecule?
**A.** Its IC50 is 0.34 to 0.39 µM.

**Q.** What about the tissue distribution [3] of the same molecule?
**A.** Its tissue distribution is “accumulated mainly in the kidney, with only a limited amount detected in the brain”.

**Q.** What about the cell cycle effect [4] of the same molecule?
**A.** The cell cycle effect was “induced cell cycle arrest in the G2/M phase”.

**Q.** And the IC50 (SUDHL-6)?
**A.** The IC50 was 3.24 µM.

**Q.** And the IC50 [5]?
**A.** Its IC50 is 0.8 µM.

**Q.** What about the IC50 (MG63) of the same molecule?
**A.** Its IC50 is 2.67 µM.

**Q.** What about the IC50 (OSA) of the same molecule?
**A.** Its IC50 is at least 10 µM.

**Q.** What about the IC50 (BER) of the same molecule?
**A.** Its IC50 is 2.41 µM.

**Q.** What about the IC50 (SIM-1) of the same molecule?
**A.** The IC50 was 1.04 µM.

**Q.** And the “Mortality (N/N)” value ([6]; 50 mg/kg i.v.)?
**A.** Its value is 0/6.

**Q.** And the “Post dosing deaths, 1st hr” value ([6]; 50 mg/kg i.v.)?
**A.** The value was 0.

**Q.** What about the “Mortality (N/N)” value ([6]; 60 mg/kg i.v.) of the same molecule?
**A.** The value was 0/6.

**Q.** What about the “Post dosing deaths, 1st hr” value ([6]; 60 mg/kg i.v.) of the same molecule?
**A.** Its value is 0.

**Q.** And the “Mortality (N/N)” value ([6]; 70 mg/kg i.v.)?
**A.** The value was 1/6.

**Q.** And the “Post dosing deaths, 1st hr” value ([6]; 70 mg/kg i.v.)?
**A.** Its value is 1.

**Q.** What about the “Mortality (N/N)” value ([6]; 80 mg/kg i.v.) of the same molecule?
**A.** The value was “all mice died and 6/6”.

**Q.** What about the “Post dosing deaths, 1st hr” value ([6]; 80 mg/kg i.v.) of the same molecule?
**A.** The value was 6.

**Q.** What about the “Mortality (N/N)” value ([6]; 100 mg/kg i.v.) of the same molecule?
**A.** Its value is 6/6.

**Q.** And the “Post dosing deaths, 1st hr” value ([6]; 100 mg/kg i.v.)?
**A.** The value was 6.

**Q.** What about the LD50 at 14 days ([6]; LD50 95% confidence interval, ICR mice) of the same molecule?
**A.** Its LD50 at 14 days is 58.8 to 107 mg/kg.

**Q.** And the LD50 at 14 days ([6]; LD50, ICR mice, 14 days)?
**A.** Its LD50 at 14 days is 70 mg/kg.

**Q.** What about the “P-gp efflux ratio (B→A/A→B)” value (P-glycoprotein (P-gp)) of the same molecule?
**A.** The value was “Possible P-gp liabilities”.

**Q.** What about the efflux ratio (P-glycoprotein (P-gp); human) of the same molecule?
**A.** The efflux ratio was over 2.

**Q.** And the “day of body-weight recovery after cessation of treatment” value [7]?
**A.** Its value is 35 to 40 days.
